# According to patent publication EP0472800A1, “Metoprololnicotinic acid ester, method of preparation and pharmaceutical use” (Sandmeier, Peter, Dr., priority 1990, dated 1992):
# Counter-ions that a name gives are not always drawn.
# Parameters: species or system Hunden
# Conditions: dog, in vivo, 0 min
# From the text: Die verhältnismässig einfache Synthese führt zu einer bemerkenswert hohen Ausbeute des erfinderischen Moleküls, der Metoprololnicotinsäure. Die an Hunden experimentierte Prodrugwirkung in drei verschiedenenen Dosen ergab folgende Retardwerte: (µg freie Base im Zielkompartiment)
# Das Resultat zeigt, dass eine relativ hohe Konzentration im Plasma bis zu vier Stunden erwartet werden kann, was die deutlich retardierte Prodrugwirkung beweist. Die Dosis C zeigt unter anderem, dass auch kleine Konzentrationen einen langanhaltenden Spiegel zeigen.
structure (smiles),measurement,value
"COCCc1ccc(OCC(CNC(C)C)OC(=O)c2cccnc2)cc1 (racemic) [Metoprololnicotinsäure, Metoprololnicotinsäureester-HCl]",freie Base im Zielkompartiment (Retardwerte),0 µg
